Results as given in PubChem BioAssay (NCI).
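Exposure lasted 48 hours, with cells grown in 96-well plates and compounds tested at five concentrations. Here, GI50 denotes the concentration required for 50% inhibition of growth. TGI is the concentration that stops growth completely.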

Assays:
Experiment in all cases: inhibition of tumour cell growth, NCI panel, 48 h
SK-MEL-5 melanoma = system: SK-MEL-5 melanoma
SNB-19 CNS = system: SNB-19 CNS
COLO 205 colon = system: COLO 205 colon
SK-MEL-2 melanoma = system: SK-MEL-2 melanoma
MDA-MB-231 breast = system: MDA-MB-231 breast
IGROV1 ovarian = system: IGROV1 ovarian
HS 578T breast = system: HS 578T breast
M14 melanoma = system: M14 melanoma
UO-31 renal = system: UO-31 renal
SNB-75 CNS = system: SNB-75 CNS
RXF 393 renal = system: RXF 393 renal
HT29 colon = system: HT29 colon
NCI-H460 lung = system: NCI-H460 lung
HCT-15 colon = system: HCT-15 colon
NCI/ADR-RES ovarian = system: NCI/ADR-RES ovarian
NCI-H226 lung = system: NCI-H226 lung
CCRF-CEM leukemia = system: CCRF-CEM leukemia
OVCAR-5 ovarian = system: OVCAR-5 ovarian
SN12C renal = system: SN12C renal
HCC-2998 colon = system: HCC-2998 colon
HOP-92 NSCLC = system: HOP-92 NSCLC
T-47D breast = system: T-47D breast
HOP-62 NSCLC = system: HOP-62 NSCLC
HL-60(TB) leukemia = system: HL-60(TB) leukemia
U251 CNS = system: U251 CNS
ACHN renal = system: ACHN renal
SK-MEL-28 melanoma = system: SK-MEL-28 melanoma
PC-3 prostate = system: PC-3 prostate
SF-539 CNS = system: SF-539 CNS

Cc1cc([C@@H](C)Nc2ccccc2C(=O)O)c2nc(N3CCOCC3)cc(=O)n2c1
GI50 (SK-MEL-5 melanoma): > 10 µM | TGI (SK-MEL-5 melanoma): > 10 µM | GI50 (SNB-19 CNS): > 10 µM | TGI (SNB-19 CNS): > 10 µM | GI50 (COLO 205 colon): > 10 µM | TGI (COLO 205 colon): > 10 µM | GI50 (SK-MEL-2 melanoma): > 10 µM | TGI (SK-MEL-2 melanoma): > 10 µM | GI50 (MDA-MB-231 breast): > 10 µM | TGI (MDA-MB-231 breast): > 10 µM | GI50 (IGROV1 ovarian): 1.85 µM | TGI (IGROV1 ovarian): > 10 µM | GI50 (HS 578T breast): 0.122 µM | TGI (HS 578T breast): 8.14 µM | GI50 (M14 melanoma): > 10 µM | TGI (M14 melanoma): > 10 µM | GI50 (UO-31 renal): 2.43 µM | TGI (UO-31 renal): > 10 µM | GI50 (SNB-75 CNS): 0.43 µM | TGI (SNB-75 CNS): > 10 µM | GI50 (RXF 393 renal): 0.0564 µM | TGI (RXF 393 renal): 1.33 µM | GI50 (HT29 colon): > 10 µM | TGI (HT29 colon): > 10 µM | GI50 (NCI-H460 lung): > 10 µM | TGI (NCI-H460 lung): > 10 µM | GI50 (HCT-15 colon): > 10 µM | TGI (HCT-15 colon): > 10 µM | GI50 (NCI/ADR-RES ovarian): > 10 µM | TGI (NCI/ADR-RES ovarian): > 10 µM | GI50 (NCI-H226 lung): > 10 µM | TGI (NCI-H226 lung): > 10 µM | GI50 (CCRF-CEM leukemia): > 10 µM | TGI (CCRF-CEM leukemia): > 10 µM | GI50 (OVCAR-5 ovarian): > 10 µM | TGI (OVCAR-5 ovarian): > 10 µM | GI50 (SN12C renal): > 10 µM | TGI (SN12C renal): > 10 µM | GI50 (HCC-2998 colon): > 10 µM | TGI (HCC-2998 colon): > 10 µM | GI50 (HOP-92 NSCLC): 0.175 µM | TGI (HOP-92 NSCLC): 6.08 µM | GI50 (T-47D breast): 0.207 µM | TGI (T-47D breast): 1.94 µM | GI50 (HOP-62 NSCLC): > 10 µM | TGI (HOP-62 NSCLC): > 10 µM | GI50 (HL-60(TB) leukemia): 5.5 µM | TGI (HL-60(TB) leukemia): > 10 µM | GI50 (U251 CNS): > 10 µM | TGI (U251 CNS): > 10 µM | GI50 (ACHN renal): > 10 µM | TGI (ACHN renal): > 10 µM | GI50 (SK-MEL-28 melanoma): > 10 µM | TGI (SK-MEL-28 melanoma): > 10 µM | GI50 (PC-3 prostate): 3.73 µM | TGI (PC-3 prostate): > 10 µM | GI50 (SF-539 CNS): 7.11 µM
